According to patent publication US20230263822A1, “MODULATION OF FACTOR 11 EXPRESSION” (Ionis Pharmaceuticals, Inc., priority 2008, published 2023):
Strand notation (5' to 3'): a small letter for the sugar, then the base; units joined by * are phosphorothioate-linked, units joined directly phosphodiester-linked; [ ] holds rarer units or linkages, { } end groups; capitals alone tell only the bases. e = 2'-O-(2-methoxyethyl) (MOE); [5mC] = 5-methylcytosine; d = 2'-deoxy (DNA)

What was measured:
Assay type in all cases: cell-based
human Factor 11 mRNA [1] = test: Antisense inhibition of human Factor 11 in HepG2 cells, electroporation, 8,000 nM (Example 30); conditions: electroporation, 8,000 nM antisense oligonucleotide
Method: These microwalk gapmers were tested in vitro. Cultured HepG2 cells at a density of 20,000 cells per well were transfected using electroporation with 8,000 nM antisense oligonucleotide. After a treatment period of approximately 24 hours, RNA was isolated from the cells and Factor 11 mRNA levels were measured by quantitative real-time PCR. Factor 11 mRNA levels were adjusted according to total RNA content, as measured by RIBOGREEN. Results are presented as percent inhibition of Factor 11, relative to untreated control cells.
The chimeric antisense oligonucleotides in Table 44 were designed as 5-10-5 MOE, 5-8-5 and 6-8-6 MOE gapmers. The first two listed gapmers in Table 44 are the original gapmers (ISIS 416850 and ISIS 416858) from which ISIS 445493-445543 were designed via microwalk, and are designated by an asterisk. The 5-10-5 gapmers are 20 nucleotides in length, wherein the central gap segment is comprised of ten 2′-deoxynucleotides and is flanked on both sides (in the 5′ and 3′ directions) by wings comprising five nucleotides each. The 5-8-5 gapmers are 18 nucleotides in length, wherein the central gap segment is comprised of eight 2′-deoxynucleotides and is flanked on both sides (in the 5′ and 3′ directions) by wings comprising five nucleotides each. The 6-8-6 gapmers are 20 nucleotides in length, wherein the central gap segment is comprised of eight 2′-deoxynucleotides and is flanked on both sides (in the 5′ and 3′ directions) by wings comprising six nucleotides each. For each of the motifs (5-10-5, 5-8-5 and 6-8-6), each nucleotide in the 5′ wing segment and each nucleotide in the 3′ wing segment has a 2′-MOE modification. The internucleoside linkages throughout each gapmer are phosphorothioate (P=S) linkages. All cytidine residues throughout each gapmer are 5-methylcytidines. “Human Target start site” indicates the 5′-most nucleotide to which the gapmer is targeted in the human sequence. “Human Target stop site” indicates the 3′-most nucleotide to which the gapmer is targeted in the human sequence. Each gapmer listed in Table 44 is targeted to SEQ ID NO: 1 (GENBANK Accession No. NM_000128.3). Each gapmer is Table 44 is also fully cross-reactive with the rhesus monkey Factor 11 gene sequence, designated herein as SEQ ID NO: 274 (exons 1-15 GENBANK Accession No. NW_001118167.1). ‘Rhesus monkey start site’ indicates the 5′-most nucleotide to which the gapmer is targeted in the rhesus monkey sequence. ‘Rhesus monkey stop site’ indicates the 3′-most nucleotide to which the gapmer is targeted to the rhesus monkey sequence.

human Factor 11 mRNA [2] = test: Dose-dependent inhibition of human Factor 11 in HepG2 cells, lipofectin 9.375-75 nM (Example 4)
In short: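 HepG2 cells transfected via lipofectin with antisense oligonucleotide at 9.375, 18.75, 37.5 or 75 nM for about 16 h. Factor 11 mRNA quantified by real-time RT-PCR (primer probe set RTS 2966) and normalized to total RNA (RIBOGREEN). Results expressed as percent inhibition versus untreated cells.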

human Factor 11 mRNA [3] = test: Antisense inhibition of human Factor 11 in HepG2 cells, lipofectin, 75 nM (Example 1); conditions: 75 nM antisense oligonucleotide, ~24 h, relative to untreated control cells
In short: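 HepG2 cells transfected via lipofectin with 75 nM antisense oligonucleotide (5-10-5 MOE gapmers, 20-mers, phosphorothioate, 5-methylcytidines), treated ~24 h. Factor 11 mRNA quantified by real-time PCR, normalised to RIBOGREEN total RNA; percent inhibition versus untreated cells.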

human Factor 11 mRNA [4] = test: Dose-dependent inhibition of human Factor 11 in HepG2 cells, electroporation 0.7-20 uM (Example 4)
In short: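 HepG2 cells electroporated with antisense gapmers at 0.7, 2.2, 6.7 and 20 μM, treated ~16 h. Factor 11 mRNA quantified by qRT-PCR (primer probe set RTS 2966), normalised to RIBOGREEN total RNA; expressed as percent inhibition versus untreated control cells.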

human Factor 11 mRNA [5] = test: Antisense inhibition of human Factor 11 in HepG2 cells by microwalk gapmers, lipofectin, 75 nM (Example 3)
In short: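 HepG2 cells (10,000/well) were transfected via lipofectin with 75 nM 20-mer MOE gapmers (phosphorothioate, 5-methyl-C) for about 24 h. Factor 11 mRNA was measured by qRT-PCR, normalized to RIBOGREEN total RNA, and given as percent inhibition versus untreated cells.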

[6] = gapmers targeted to SEQ ID NO: 1
[7] = gapmers targeted to SEQ ID NO: 2

Substance | Percent inhibition of human Factor 11 mRNA levels (human Factor 11 mRNA [1]) [%] | % inhibition (human Factor 11 mRNA [3]; [6]) [%] | also measured
445514 (antisense eG*eG*e[5mC]*eA*eG*e[5mC]*dG*dG*dA*d[5mC]*dG*dG*d[5mC]*dA*eT*eT*eG*eG*eT*eG) [compound 445514] | 81 |  | 
445494 (antisense e[5mC]*eA*e[5mC]*eA*eG*eT*dT*dT*d[5mC]*dT*dG*dG*d[5mC]*dA*eG*eG*e[5mC]*e[5mC]*eT*e[5mC]) [compound 445494] | 85 |  | 
445499 (antisense eT*eG*eG*eT*eG*e[5mC]*dA*d[5mC]*dA*dG*dT*dT*dT*d[5mC]*eT*eG*eG*e[5mC]*eA*eG) [compound 445499] | 75 |  | 
445496 (antisense eT*eG*e[5mC]*eA*e[5mC]*eA*dG*dT*dT*dT*d[5mC]*dT*dG*dG*e[5mC]*eA*eG*eG*e[5mC]*e[5mC]) [compound 445496] | 87 |  | 
445537 (antisense eG*e[5mC]*eG*eG*eA*d[5mC]*dG*dG*d[5mC]*dA*dT*dT*dG*eG*eT*eG*e[5mC]*eA) [compound 445537] | 78 |  | 
445540 (antisense eG*e[5mC]*eA*eG*e[5mC]*dG*dG*dA*d[5mC]*dG*dG*d[5mC]*dA*eT*eT*eG*eG*eT) [compound 445540] | 74 |  | 
445511 (antisense eA*eG*e[5mC]*eG*eG*eA*d[5mC]*dG*dG*d[5mC]*dA*dT*dT*dG*eG*eT*eG*e[5mC]*eA*e[5mC]) [compound 445511] | 77 |  | 
445535 (antisense eG*eG*eA*e[5mC]*eG*dG*d[5mC]*dA*dT*dT*dG*dG*dT*eG*e[5mC]*eA*e[5mC]*eA) [compound 445535] | 83 |  | 
445534 (antisense eG*eA*e[5mC]*eG*eG*d[5mC]*dA*dT*dT*dG*dG*dT*dG*e[5mC]*eA*e[5mC]*eA*eG) [compound 445534] | 82 |  | 
445495 (antisense eG*e[5mC]*eA*e[5mC]*eA*eG*dT*dT*dT*d[5mC]*dT*dG*dG*d[5mC]*eA*eG*eG*e[5mC]*e[5mC]*eT) [compound 445495] | 89 |  | 
445527 (antisense eT*eT*eG*eG*eT*dG*d[5mC]*dA*d[5mC]*dA*dG*dT*dT*eT*e[5mC]*eT*eG*eG) [compound 445527] | 70 |  | 
445518 (antisense eA*eG*eT*eT*eT*d[5mC]*dT*dG*dG*d[5mC]*dA*dG*dG*e[5mC]*e[5mC]*eT*e[5mC]*eG) [compound 445518] | 75 |  | 
445521 (antisense e[5mC]*eA*e[5mC]*eA*eG*dT*dT*dT*d[5mC]*dT*dG*dG*d[5mC]*eA*eG*eG*e[5mC]*e[5mC]) [compound 445521] | 87 |  | 
445508 (antisense eG*eG*eA*e[5mC]*eG*eG*d[5mC]*dA*dT*dT*dG*dG*dT*dG*e[5mC]*eA*e[5mC]*eA*eG*eT) [compound 445508] | 81 |  | 
445523 (antisense eT*eG*e[5mC]*eA*e[5mC]*dA*dG*dT*dT*dT*d[5mC]*dT*dG*eG*e[5mC]*eA*eG*eG) [compound 445523] | 73 |  | 
413474 (antisense eA*eG*e[5mC]*eA*eA*d[5mC]*d[5mC]*dG*dG*dG*dA*dT*dG*dA*dT*eG*eA*eG*eT*eG) [compound 413474] |  | 84 | IC50 (human Factor 11 mRNA [2]): 0.028 µM; percent inhibition of Factor 11 at 9.375 nM (human Factor 11 mRNA [2]; 9.375 nM, relative to untreated control cells): 29%; percent inhibition of Factor 11 at 18.75 nM (human Factor 11 mRNA [2]; 18.75 nM, relative to untreated control cells): 44%; percent inhibition of Factor 11 at 37.5 nM (human Factor 11 mRNA [2]; 37.5 nM, relative to untreated control cells): 57%; percent inhibition of Factor 11 at 75 nM (human Factor 11 mRNA [2]; 75 nM, relative to untreated control cells): 67%; IC50 (human Factor 11 mRNA [4]): 6.9 µM; percent inhibition of Factor 11 at 0.7 μM (human Factor 11 mRNA [4]; 0.7 μM, relative to untreated control cells): 0%; percent inhibition of Factor 11 at 2.2 μM (human Factor 11 mRNA [4]; 2.2 μM, relative to untreated control cells): 5%; percent inhibition of Factor 11 at 6.7 μM (human Factor 11 mRNA [4]; 6.7 μM, relative to untreated control cells): 52%; percent inhibition of Factor 11 at 20 μM (human Factor 11 mRNA [4]; 20 μM, relative to untreated control cells): 81%; % inhibition (human Factor 11 mRNA [5]; HepG2 cells, lipofectin, gapmers targeted to nucleobases 1018 to 1042 of SEQ ID NO: 1): 93%

Substance | Percent inhibition of human Factor 11 mRNA levels (human Factor 11 mRNA [1]) [%] | % inhibition (human Factor 11 mRNA [3]; [6]) [%] | also measured
412204 (antisense eT*eT*e[5mC]*eA*eT*dG*dT*d[5mC]*dT*dA*dG*dG*dT*d[5mC]*d[5mC]*eA*e[5mC]*eA*eT*eA) [compound 412204] |  | 74 | % inhibition (human Factor 11 mRNA [5]; HepG2, lipofectin, ~24 h, gapmers targeted to nucleobases 656 to 704 of SEQ ID NO: 1): 76%
412215 (antisense eA*eT*eT*e[5mC]*eT*dT*dT*dG*dG*dG*d[5mC]*d[5mC]*dA*dT*dT*e[5mC]*e[5mC]*eT*eG*eG) [compound 412215] |  | 81 | % inhibition (human Factor 11 mRNA [5]; HepG2 cells, lipofectin, gapmers targeted to nucleobases 1062 to 1091 of SEQ ID NO: 1): 82%
413465 (antisense e[5mC]*eT*eT*eA*eT*dT*dT*dG*dG*dT*dG*dT*dG*dA*dG*e[5mC]*eA*eT*eT*eG) [compound 413465] |  | 80 | 
412218 (antisense eA*eA*e[5mC]*e[5mC]*eA*dG*dA*dA*dA*dG*dA*dG*d[5mC]*dT*dT*eT*eG*e[5mC]*eT*e[5mC]) [compound 412218] |  | 27 | 
413477 (antisense eA*e[5mC]*eT*eG*eA*dA*dA*d[5mC]*d[5mC]*dA*dG*dA*dA*dA*dG*eA*eG*e[5mC]*eT*eT) [compound 413477] |  | 54 | 
412195 (antisense eA*eA*eA*eT*e[5mC]*dA*dT*d[5mC]*d[5mC]*dT*dG*dA*dA*dA*dA*eG*eA*e[5mC]*e[5mC]*eT) [compound 412195] |  | 22 | 
412231 (antisense eT*e[5mC]*e[5mC]*eT*eG*dG*dG*d[5mC]*dT*dT*dG*dA*dT*dT*dT*eT*eG*eG*eT*eG) [compound 412231] |  | 74 | 
413494 (antisense eG*eT*eG*eG*eT*dT*dT*d[5mC]*d[5mC]*dA*dG*dT*dT*dT*d[5mC]*eA*eA*e[5mC]*eA*eA) [compound 413494] |  | 70 | 
412187 (antisense eT*eT*e[5mC]*eA*eA*dA*d[5mC]*dA*dA*dG*dT*dG*dA*d[5mC]*dA*eT*eA*e[5mC]*eA*e[5mC]) [compound 412187] |  | 21 | 
412200 (antisense eA*eA*eG*eA*eA*dT*dA*d[5mC]*d[5mC]*d[5mC]*dA*dG*dA*dA*dA*eT*e[5mC]*eG*e[5mC]*eT) [compound 412200] |  | 59 | 
413513 (antisense eT*eT*e[5mC]*eT*eG*dA*dA*dT*dA*dT*dA*d[5mC]*dA*dA*dA*eT*eT*eA*eA*eT) [compound 413513] |  |  | % inhibition (human Factor 11 mRNA [3]; [7]): 27%
412205 (antisense eG*eT*eT*eT*eA*dT*dG*d[5mC]*d[5mC]*d[5mC]*dT*dT*d[5mC]*dA*dT*eG*eT*e[5mC]*eT*eA) [compound 412205] |  | 69 | 
413537 (antisense eA*eG*eA*eA*eA*dT*dA*dT*d[5mC]*d[5mC]*d[5mC]*d[5mC]*dA*dG*dA*e[5mC]*eA*eG*eA*eG) [compound 413537] |  |  | % inhibition (human Factor 11 mRNA [3]; [7]): 16%
413464 (antisense eG*eT*eG*eA*eG*d[5mC]*dA*dT*dT*dG*d[5mC]*dT*dT*dG*dA*eA*eA*eG*eA*eA) [compound 413464] |  | 42 | 
412199 (antisense eT*eT*e[5mC]*eA*e[5mC]*dT*d[5mC]*dT*dT*dG*dG*d[5mC]*dA*dG*dT*eG*eT*eT*eT*e[5mC]) [compound 412199] |  | 66 | 
